Where no end group is shown, it is not given here.
What was measured:
Type in all cases: biochemical
[1] = target: T1, bacteriophage λ Integrase (Int) (Escherichia phage lambda, UniProt P03700); experiment: Formation of covalent protein-DNA complexes (CPDs) by Int
T1 sequence (P03700 1-356): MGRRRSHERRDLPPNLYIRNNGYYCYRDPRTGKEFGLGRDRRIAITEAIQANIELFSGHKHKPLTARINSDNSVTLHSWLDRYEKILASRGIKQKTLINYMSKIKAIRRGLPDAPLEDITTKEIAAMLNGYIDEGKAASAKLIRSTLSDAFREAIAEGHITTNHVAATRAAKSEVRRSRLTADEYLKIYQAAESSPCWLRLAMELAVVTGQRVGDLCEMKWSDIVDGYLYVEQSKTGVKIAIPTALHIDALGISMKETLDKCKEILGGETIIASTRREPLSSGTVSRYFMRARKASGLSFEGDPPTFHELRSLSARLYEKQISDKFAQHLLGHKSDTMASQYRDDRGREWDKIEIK
From the text: Int, like its relative tyrosine recombinases, makes transient covalent protein-DNA complexes (CPDs) during the cleavage stage of the recombination reaction. […] Since these complexes are the product of DNA cleavage by Int prior to strand exchange or ligation, we tested the effect of peptide KWWCRW on their formation. The peptide inhibited accumulation of both attL and attR CPDs by 65-75% (data not shown), supporting our model that KWWCRW blocks recombination by interfering with the cleavage step of the reaction.

[2] = target: T2, bacteriophage λ Integrase (Int) (Escherichia phage lambda, UniProt P03700); experiment: Top strand cleavage of phosphorothiolate-modified attL (attLS); conditions: with Int, IHF, Xis and attR
Method: (§1) FIG. 18 depicts effect of peptide WKHYNY on DNA cleavage. A. Time course of resolution of excision HJs. HJs were isolated, and Int, IHF, and Xis were added in the presence or absence of peptide 52 (100 μM) and stopped at various timepoints (1, 5, 15, 30, 60, and 90 min). Absence of peptide, closed circles; presence of peptide, open squares. B. The extent of strand cleavage of attL. An attL site containing a phosphorothiolate modification at the point of top strand cleavage (attLS) was incubated with Int, IHF, and Xis, in the presence of attR and in the presence or absence of peptide WKHYNY. Absence of peptide, open squares; presence of peptides, closed diamonds.
In contrast, the peptide has little or no effect on the, rate of cleavage of the attL early intermediate under recombination conditions (FIG. 18B). We measured this by using attL substrates containing a bridging phosphorothiolate modification at the locus of top strand cleavage. This modification, developed by Burgin and Nash (1995), replaces a bridging oxygen atom in the DNA backbone with a sulfur atom. Upon cleavage, the covalent Int-DNA intermediate remains trapped because the sulfhydryl generated at the free 5′ end is a much poorer nucleophile of the phosphotyrosyl bond than the normal hydroxyl group (Burgin et al., 1995). […]
T2 sequence (P0A6X7 whole entry partner, one chain of several): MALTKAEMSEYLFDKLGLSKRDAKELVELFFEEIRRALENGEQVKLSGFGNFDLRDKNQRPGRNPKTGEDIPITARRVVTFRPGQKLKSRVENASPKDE
T2 sequence (P0A6Y1 whole entry partner, one chain of several): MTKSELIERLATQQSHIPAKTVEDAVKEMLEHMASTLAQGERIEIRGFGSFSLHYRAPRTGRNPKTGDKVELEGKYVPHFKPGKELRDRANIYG
T2 sequence (P03699 whole entry partner, one chain of several): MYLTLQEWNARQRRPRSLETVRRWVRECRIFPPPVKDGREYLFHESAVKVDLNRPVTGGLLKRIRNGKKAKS

[3] = target: T2, bacteriophage λ Integrase (Int); experiment: Resolution of isolated excision Holliday junctions by Int, IHF and Xis; conditions: peptide 100 μM
Method: as §1
Holliday junctions can be resolved either in the “forward” direction to form recombinant products or in the “reverse” direction to re-form substrates. Synthetic HJs representing intermediates in the unidirectional reactions are preferentially resolved in the direction of products (Hsu and Landy, 1984; Franz and Landy, 1990, 1995). We wanted to determine whether HJs isolated in the presence of peptide behave similarly to the synthetic HJs. In addition, we wanted to analyze the processing of bent-L HJs. Recombination reactions were assembled in the presence of peptide WKHYNY, and protein-free HJs were isolated from SDS-containing gels, eluted, and precipitated. […]

## KWWCRW-NH2 [Peptide 59, KWWCRW]
[1]
  inhibition of accumulation of attL and attR CPDs: 65-75%

## WKHYNY-NH2 [Peptide 52, WKHYNY]
[2]
  effect on first strand cleavage of attLS: no influence on the kinetics or the amount of cleavage
[3]
  effect on rate of resolution of gel-isolated excision HJs: slowed the rate of cleavage
